Reference: patent US7732568B2, “Methods for preventing and treating Alzheimer's disease” (AFFIRIS Forschungs-und Entwicklungs GmbH, priority 2003, dated 2010)
“Also recorded” adds a separate entry of the source. Where no end group is shown, it is not given here.

Experiments:
[1] = tested on: biotinylated monoclonal antibody specific for DAEFRH (natural N-terminal Aβ42 sequence); experiment: Inhibition assay (competition ELISA): mimotope peptides compete with plate-bound DAEFRH-BSA for the monoclonal antibody, Example 3 (FIGS. 2 and 3); assay type: binding, mice; settings: for inhibition of binding of the monoclonal antibody to the original epitope (in words): peptides at 50 to 0.0005 μg/ml, FIGS. 2 and 3; for Inhibitory capacity of mimotopes (Table 1): summary grade: strong, intermediate, weak, none
Method: (§1) FIGS. 2 and 3 describe the results of inhibition assays performed with mimotope peptides included in and obtained from the 5 libraries (as described). The mimotope peptides compete with the original epitope for recognition by the monoclonal antibody. Original epitope and mimotope peptides contain an additional C at the C-terminus for coupling to a protein carrier (if desired).
(§2) After blocking with PBS/BSA 1% (200 μl/well, 12 h, 4° C.), the plates are washed 3× times with PBS/Tween. Then, biotinylated monoclonal antibody (1:2000, 50 μl/well) and peptides (50 μl/well) at 50, 5, 0.5, 0.05, 0.005, and 0.0005 μg/ml are added for 20 min. at 37° C. The plates are washed 3× times with PBS/Tween and are incubated with horseradish peroxidase (HRP)-labeled streptavidin (100 μl/well, 30 min, RT). The plates are washed 5× times with PBS/Tween and are incubated with ABTS+H2O2 (0.1% w/v, 10 to 45 min) and the reaction is stopped with citric acid followed by photometric evaluation (wavelength 405 nm).

[2] = tested on: biotinylated monoclonal antibody specific for DAEFRH (natural N-terminal Aβ42 sequence); experiment: Inhibition assay for additional mimotopes (competition ELISA), Example 4 (FIGS. 4 and 5); assay type: binding, mice; settings: for inhibition of binding of the monoclonal antibody to the original epitope (in words) / IC50 of inhibition of monoclonal antibody recognition of the original epitope: FIGS. 4 and 5; for Inhibitory capacity of mimotopes (Table 2): summary grade: strong, intermediate, weak, none; for IC50 of inhibition of monoclonal antibody recognition of the original epitope: plate-bound DAEFRH-BSA 0.1 μg/ml, peptides at different concentrations, 20 min, 37° C.
Method: as §1, with “4” for “2”, “5” for “3”, “C-terminus (position 7)” for “C-terminus”
as §2, with “different concentrations” for “50, 5, 0.5, 0.05, 0.005, and 0.0005 μg/ml”, “ABTS H2O2” for “ABTS+H2O2”

[3] = tested on: biotinylated DAEFRH-specific mAb; experiment: ELISA with peptide libraries: detection of mimotopes by the DAEFRH-specific mAb; assay type: binding, mice; settings: mimotopes from peptide libraries 1, 2 and 3
Method: The ELISA with each of the peptide libraries have been carried out following standard protocols:
The peptide library is dissolved in 100% DMSO (final concentration 10 mg/ml).
The peptide solution is further diluted in PBS.
The peptide mixture is coated overnight (4° C.) onto ELISA plates (Nunc Maxisorp, Germany), starting with 500 μg/well, and titrated to 100 ng/well.
The plates are washed 3× times with PBS/Tween 20 (0.1% v/v).
The plates are blocked with PBS/BSA (2 h at room temperature).
The plates are washed 3× times with PBS/Tween.
The plates are incubated with biotinylated DAEFRH-specific mAb (DAEFRH sequence disclosed as SEQ ID NO: 1) (10 μg/ml in PBS) for 4 h at room temperature.
The plates are incubated with streptavidin-horseradish-peroxidase (30 min at room temperature).
The plates are washed 5× times with PBS/Tween.
The plates are incubated with ABTS+H2O2 (0.1% w/v; 10 to 45 min) and the reaction is stopped with citric acid followed by photometric evaluation (wavelength 405 nm).

[4] = biological target: DAEFRH-specific monoclonal antibody (mAb) produced according to example 1; experiment: competition ELISA: soluble peptide vs plate-bound DAEFRH-C-BSA for biotinylated mAb, FIG. 5

Row | inhibition of binding of the monoclonal antibody to the original epitope (in words) [1] | inhibition of binding of the monoclonal antibody to the original epitope (in words) [2] | Molecule | Inhibitory capacity of mimotopes (Table 1) [1] | further results
1 | block epitope recognition |  | C[C@H](NC(=O)[C@@H](N)Cc1ccc(O)cc1)C(=O)N[C@@H](CCC(=O)O)C(=O)N[C@@H](Cc1ccccc1)C(=O)N[C@@H](CCCNC(=N)N)C(=O)NCC(=O)N[C@@H](CS)C(=O)O [Peptide 3005, YAEFRG] | intermediate | 
2 |  |  | DIDYRR [DLDYRR (SEQ ID NO: 97)] |  | detection by the monoclonal antibody produced according to example 1 [3]: can be detected
3 |  | block epitope recognition | CC[C@H](C)[C@H](NC(=O)[C@H](CCCCN)NC(=O)[C@H](CC(C)C)NC(=O)[C@H](CCC(=O)O)NC(=O)[C@H](CCCNC(=N)N)NC(=O)[C@@H](N)CC(=O)O)C(=O)N[C@@H](CS)C(=O)O [Peptide 1237, DRELKI] |  | Inhibitory capacity of mimotopes (Table 2) [2]: weak
4 |  |  | DVDYRR |  | detection by the monoclonal antibody produced according to example 1 [3]: can be detected
5 | block epitope recognition |  | CC[C@H](C)[C@H](NC(=O)[C@H](CCCNC(=N)N)NC(=O)[C@H](CC(C)C)NC(=O)[C@H](CCC(=O)O)NC(=O)[C@H](Cc1c[nH]c2ccccc12)NC(=O)[C@@H](N)CC(=O)O)C(=O)N[C@@H](CS)C(=O)O [Peptide 3002, DWELRI] | intermediate | 
6 |  | block epitope recognition | GREFRN [Peptide 4003] |  | concentration at which the peptide is only inhibitory ([2]; FIG. 4): 10 µg/mL; Inhibitory capacity of mimotopes (Table 2) [2]: weak
7 |  |  | DLDYRR [DLDYRR (SEQ ID NO: 98)] |  | detection by the monoclonal antibody produced according to example 1 [3]: can be detected
8 |  |  | DIDYHR |  | detection by the monoclonal antibody produced according to example 1 [3]: can be detected
9 | block epitope recognition |  | C[C@H](NC(=O)[C@@H](N)CCC(=O)O)C(=O)N[C@@H](CCC(=O)O)C(=O)N[C@@H](Cc1ccccc1)C(=O)N[C@@H](CCCNC(=N)N)C(=O)NCC(=O)N[C@@H](CS)C(=O)O [Peptide 3006, EAEFRG] | strong | 
10 |  |  | N=C(N)NCCC[C@H](NC(=O)[C@H](Cc1ccccc1)NC(=O)[C@H](CCC(=O)O)NC(=O)[C@H](Cc1ccccc1)NC(=O)[C@@H](N)CO)C(=O)NCC(=O)N[C@@H](CS)C(=O)O [Peptide 3009, SFEFRG] | weak | 
11 |  |  | DVDYHR |  | detection by the monoclonal antibody produced according to example 1 [3]: can be detected
12 |  | block epitope recognition | C[C@@H](O)[C@H](NC(=O)[C@H](CCCNC(=N)N)NC(=O)[C@H](Cc1ccccc1)NC(=O)[C@H](CCC(=O)O)NC(=O)[C@H](Cc1c[nH]c2ccccc12)NC(=O)[C@@H](N)CO)C(=O)N[C@@H](CS)C(=O)O [Peptide 4002, SWEFRT] |  | IC50 of inhibition of monoclonal antibody recognition of the original epitope [2]: less than 0.4 μg/ml; Inhibitory capacity of mimotopes (Table 2) [2]: strong
13 |  |  | EVDYHR |  | detection by the monoclonal antibody produced according to example 1 [3]: can be detected
14 |  | block epitope recognition | CC[C@H](C)[C@H](NC(=O)[C@H](CCCNC(=N)N)NC(=O)[C@H](CC(C)C)NC(=O)[C@H](CCC(=O)O)NC(=O)[C@H](CCCNC(=N)N)NC(=O)[C@@H](N)CC(=O)O)C(=O)N[C@@H](CS)C(=O)O [Peptide 1235, DRELRI] |  | Inhibitory capacity of mimotopes (Table 2) [2]: strong
15 | block epitope recognition |  | CC[C@H](C)[C@H](NC(=O)[C@H](CCCNC(=N)N)NC(=O)[C@H](CC(C)C)NC(=O)[C@H](CCC(=O)O)NC(=O)[C@H](CCCCN)NC(=O)[C@@H](N)CC(=O)O)C(=O)N[C@@H](CS)C(=O)O [Peptide 3001, DKELRI] | strong | 
16 |  |  | ELDYHR |  | detection by the monoclonal antibody produced according to example 1 [3]: can be detected
17 |  |  | DLDYHR |  | detection by the monoclonal antibody produced according to example 1 [3]: can be detected
18 | block epitope recognition |  | N=C(N)NCCC[C@H](NC(=O)[C@H](Cc1ccccc1)NC(=O)[C@H](CCC(=O)O)NC(=O)[C@H](Cc1ccc(O)cc1)NC(=O)[C@@H](N)CC(=O)O)C(=O)NCC(=O)N[C@@H](CS)C(=O)O [Peptide 3007, DYEFRG] | strong | 
19 |  | block epitope recognition | N=C(N)NCCC[C@H](NC(=O)[C@H](Cc1ccccc1)NC(=O)[C@H](CCC(=O)O)NC(=O)[C@H](Cc1ccc(O)cc1)NC(=O)[C@@H](N)CCC(=O)O)C(=O)NCC(=O)N[C@@H](CS)C(=O)O [Peptide 1239, EYEFRG] |  | IC50 of inhibition of monoclonal antibody recognition of the original epitope [2]: more than 0.5 μg/ml; Inhibitory capacity of mimotopes (Table 2) [2]: intermediate
20 |  |  | CC(C)C[C@H](NC(=O)[C@@H](N)CCC(=O)O)C(=O)N[C@@H](CCC(=O)O)C(=O)N[C@@H](Cc1ccccc1)C(=O)N[C@@H](CCCNC(=N)N)C(=O)NCC(=O)N[C@@H](CS)C(=O)O [Peptide 3008, ELEFRG] | weak | 
21 |  |  | EIDYHR |  | detection by the monoclonal antibody produced according to example 1 [3]: can be detected
22 | block epitope recognition |  | YREFRI [Peptide 3004] | weak | concentration at which the peptide is only inhibitory ([1]; FIG. 2): 50 µg/mL
23 |  | block epitope recognition | CC[C@H](C)[C@H](NC(=O)[C@H](CCCCN)NC(=O)[C@H](CC(C)C)NC(=O)[C@H](CCC(=O)O)NC(=O)[C@H](CCCCN)NC(=O)[C@@H](N)CC(=O)O)C(=O)N[C@@H](CS)C(=O)O [Peptide 1236, DKELKI] |  | Inhibitory capacity of mimotopes (Table 2) [2]: weak
24 |  |  | DRELRIC [Peptide 1235 DRELRI] |  | IC50 [4]: < 0.5 µg/mL
25 |  |  | DWEFRDAC [Peptide 1241 DWEFRDA] |  | IC50 [4]: < 0.5 µg/mL
26 |  |  | DKELRC [Peptide 1238 DKELR] |  | IC50 [4]: < 0.5 µg/mL

Row | Molecule | inhibition of binding of the monoclonal antibody to the original epitope (in words) [1] | inhibition of binding of the monoclonal antibody to the original epitope (in words) [2] | Inhibitory capacity of mimotopes (Table 1) [1] | further results
27 | C[C@H](NC(=O)[C@H](CC(=O)O)NC(=O)[C@H](CCCNC(=N)N)NC(=O)[C@H](Cc1ccccc1)NC(=O)[C@H](CCC(=O)O)NC(=O)[C@H](Cc1c[nH]c2ccccc12)NC(=O)[C@@H](N)CC(=O)O)C(=O)N[C@@H](CS)C(=O)O [Peptide 1241, DWEFRDA] |  | block epitope recognition |  | Inhibitory capacity of mimotopes (Table 2) [2]: strong
28 | DISFRG [Peptide 3010] | not inhibitory at the concentrations tested |  | none | 
29 | DIGWRG [Peptide 3011] | not inhibitory at the concentrations tested |  | none | 
30 | WHWSWR [Peptide 4004] |  | not able to inhibit binding of the monoclonal antibody to the original epitope |  | Inhibitory capacity of mimotopes (Table 2) [2]: none
31 | YREFFI [Peptide 3003] | not able to inhibit binding of the monoclonal antibody to the original epitope |  | none | 
32 | DAEFRH (not fully specified (C-terminus)) [Peptide 1737, reference compound] | inhibits recognition by the monoclonal antibody; also recorded: can successfully compete | inhibits recognition by the monoclonal antibody; also recorded: can successfully compete |  | 
33 | KKELRI [Peptide 1234] |  | hardly inhibitory at the concentrations tested |  | Inhibitory capacity of mimotopes (Table 2) [2]: none
